One compound from EP0319316A2, “Griseolic acid monoesters, their preparation and use” (SANKYO COMPANY LIMITED, priority 1987, dated 1989) can be followed below.

The subject of data set [1] is Normal intraocular pressure. As to the kind of experiment: Normal intraocular pressure lowering effect (Experiment 3). The class given is in vivo, male New Zealand white rabbits. Particulars: 2.0% sample solution, p < 0.05. Here is the method:
In the following Experiments 1 to 6, the test animals used were male New Zealand white rabbits, each weighing about 2.5 kg, raised in a room where the room temperature, relative humidity and lighting time were controlled to be 23° C, 60% and from 07:00 to 19:00, respectively. The animals were chosen from those where no abnormalities could be detected in their eyes by observation with the naked eye. They were given water freely but feed was restricted. The compound under test was dissolved in 100 mM of a sodium phosphate buffer solution (pH 7.2) containing a small amount of a 0.1 N aqueous solution of sodium hydroxide. In the case of timolol maleate, a 0.5% w/v eye lotion (Timoptol 0.5%, Santen Pharm. Co.) was used as such. The corneal surface was anesthetized by the application of oxybuprocain hydrochloride (Benoxil 0.4% solution, Santen Pharm. Co.), and the IOP was measured by means of an Alcon Applanation Pneumatograph (Japan Alcon) in rabbits. The measurements were carried out 2 or 3 times for each eye, and the mean value was calculated and is regarded as the value of IOP. After determination of the IOP, 25 µℓ of a sample solution was applied to one eye (test eye) three times every two minutes, and the same volume of the vehicle alone was applied to the other eye (control eye). The values of IOP of both eyes were measured with the passage of time. In this Experiment, the test compound was the compound of Example 19(b).

In data set [2] the test system is IOP. As to the kind of experiment: IOP lowering effect, area between IOP-time curves (Experiment 6). The note with it: Concentration 2.0 %; 25 µℓ three times every 2 minutes; ratio of areas between IOP lines. The class given is in vivo, male New Zealand white rabbits. As to the method: In the following Experiments 1 to 6, the test animals used were male New Zealand white rabbits, each weighing about 2.5 kg, raised in a room where the room temperature, relative humidity and lighting time were controlled to be 23° C, 60% and from 07:00 to 19:00, respectively. The animals were chosen from those where no abnormalities could be detected in their eyes by observation with the naked eye. They were given water freely but feed was restricted.
The compound under test was dissolved in 100 mM of a sodium phosphate buffer solution (pH 7.2) containing a small amount of a 0.1 N aqueous solution of sodium hydroxide. In the case of timolol maleate, a 0.5% w/v eye lotion (Timoptol 0.5%, Santen Pharm. Co.) was used as such.
The cornea of the rabbit was anesthetized by the topical application of one or two drops of 0.4% oxybuprocaine hydrochloride. The IOP was measured two or three times for each eye and the mean value was calculated and is reported as the IOP value. After the IOP of the rabbit eye had been measured, 25 µℓ of the sample solution was applied to center of the cornea of one eye three times every 2 minutes. The other eye was treated with the vehicle alone in a similar way. The IOP of both eyes was then measured.
IOP values obtained from both eyes were plotted against times after application and the area enclosed by the two IOP lines (with and without the active compound) was calculated. The IOP lowering effect of each sample was expressed as a ratio of the area described above to that of 0.5^0/o timolol.

In data set [3] the test system is Male F344 rats. As to the kind of experiment: Acute toxicity in the rat (Experiment 7). The class given is in vivo. The note with it: single, observation one week. Here is the method: Animals: Male F344 rats were used, each group consisting of 3 animals.
Drug preparation and administration: the compound of Example 19(b) was dissolved in distilled water and administered subcutaneously to the rats in a volume of 0.5 ml per 100 g of body weight. Observation of the rats was carried out over a period of one week.

Details of data set [4]: species or system Male albino rabbits. Particulars: rabbit, in vivo. Here is the method:
Animals: Male albino rabbits, each weighing about 2.5 kg, were used in a group of 5 animals.
Drug preparation and administration: the compound of Example 19(b) was dissolved in a 0.1 M sodium phosphate buffer (pH 7.2) and administered topically to one eye of the rabbit twice a day at […] and 16:00 for one week, although the administration at 16:00 on the final day was not carried out. The other group was left intact as a control. Four hours after the final administration at 09:00, blood was collected from the marginal ear vein of the rabbit in a syringe, and was centrifuged to obtain the serum.
Biochemical analysis of the serum: the rabbit serum was biochemically analyzed for trigly.ceride (TG), total cholesterol (T-CHO), alkaline phosphatase (ALP), total protein (TP), phospholipid (PL), urea nitrogen (UN), glucose (GLU), transaminase (GOT and GPT), albumin (ALB), total calcium (CA), inorganic phosphorus (IP), creatinine (CRE), and ratio of albumin to globulin (A/G). The analysis was carried out by using an autoanalyzer (HITACHI, Japan).

The test system of data set [5] is eyes. As to the kind of experiment: Eye irritation by the Draize method (Experiment 11). The data set is classed as in vivo, male New Zealand white rabbit. The note with it: 2% by weight solution, 0.05 ml three times a day for seven days, right eye. As to the method: The irritation to the eyes caused by solutions of the compound of Example 19(b) was determined by the Draize method [J.H. Draize et af., J. Pharmacol. Exp. Ther., 82,377 (1944)] and evaluated by the method of Kay and Calandra [J.H. Kay and J.C. Calandra, J. Soc. Cosmet. Chem., 13, 281 (1962)].
The test solution employed was a simple solution of 2% by weight of the test compound in 100 mM of a sodium phosphate buffer (pH 7.2) for injections and adjusted to a pH value of from 7 to 8, as required.
A male New Zealand white rabbit of body weight about 2.5 kg was placed in a pillory to fix its head. 0.05 ml of the test solution was instilled into its right eye three times a day (at 09:00, 13:00 and 17:00) for seven days. The symptoms experienced by the anterior portion of the right eye were observed every day at 18:00 over a period of seven days, and the irritation observed was scored.

Data set [6] relates to Balb/3T3 cells. The note with it: 10 min, 500 µM.
Experimental: Balb/3T3 cells were incubated in Dulbecco's modified Eagle medium (glucose-rich) containing 100/o v/v bovine fetal serum. […] The sample was then dissolved in a buffer solution prepared by the further addition of 4 mM of calcium chloride to the buffer solution mentioned above. If the sample was difficult to dissolve in water, it was dissolved first in dimethyl sulphoxide (DMSO) and then the resulting solution was diluted with the buffer (the final concentration of DMSO was determined to be 0.1%). The cell suspension was preincubated at 30° C for 5 minutes, and 100 µℓ of this suspension were added to 100 µℓ of the sample solution to initiate enzymatic reaction. After incubation at 30° C for 10 minutes, 20 µℓ of 1 N aqueous hydrochloric acid was added to stop the reaction. The reaction mixture was then centrifuged at 3000 rpm for 3 minutes to obtain 100 µℓ of the supernatant. Cyclic 3',5'-adenosine monophosphate (cAMP) contained in the supernatant was quantitatively analyzed by radioimmunoassay using a Yamasa cAMP radioimmunoassay kit YSI-7701. The CAMP accumulating effect is reported as the ratio between the value measured using a test compound and that measured in the control.
Details of data set [7]: species or system Male albino rabbits. The note with it: rabbit, in vivo. The source holds these as a separate data set.

Take `CC(=O)Oc1ccc(COC(=O)C23C=C(C(O)C(=O)O)OC2C(O)C(n2cnc4c(N)ncnc42)O3)cc1` (centres unmarked) [Example 19(b), 9'-(4-Acetoxybenzyl) griseolate]: the “IOP of test eye” value in data set [1] (25 µℓ three times every two minutes, one hour after application, control eye 20.7 ± 1.4) came to 19.5 ± 1.4 mmHg. Further, in data set [1] (2 hours after application, control eye 21.4), the “IOP of test eye” value stood at 19.3 ± 1.3 mmHg. Besides, the “IOP of test eye” value in data set [1] (5 hours after application, control eye 22.8 ± 0.5) came to 20.6 ± 0.7 mmHg. In addition, the “IOP Lowering Effect (Ratio to 0.5% timolol)” value in data set [2] is 2.35. Further, the death rate in data set [3] (dose 25 mg/kg subcutaneously) is reported as 0/3. Also, the death rate in data set [3] (dose 50 mg/kg subcutaneously) is 0/3. Further, in data set [3] (dose 100 mg/kg subcutaneously), the death rate is given as 3/3. In data set [4], this compound displayed an A/G of 15.6 ± 2.5, an ALB of 5.0 ± 0.1 g/dL, an ALP of 379.0 ± 49.0 IU/ℓ and a CA of 14.0 ± 0.2 mg/dL. In data set [4], this compound registered a CRE of 0.90 ± 0.05 mg/dL, a GLU of 137.0 ± 3.0 mg/dL, a GOT of 9.6 ± 1.5 IU/ℓ and a GPT of 19.6 ± 3.9 IU/ℓ. In data set [4], this compound registered a PL of 91.8 ± 4.6 mg/dL, a T-CHO of 45.0 ± 3.2 mg/dL, a TG of 58.4 ± 5.4 mg/dL and a TP of 5.3 ± 0.2 g/dL. Also, the UN in data set [4] stood at 17.9 ± 0.9 mg/dL. Further, the “irritation to the eyes” value in data set [5] is on record as “No significant stimulus was observed”. Also, the cAMP accumulating effect in data set [6] was determined as 16. This compound returned an IP in data set [7] of 5.1 ± 0.5 mg/dL.
